In patent US11578056B2, “Solid forms comprising (S)-2-(2,6-dioxopiperidin-3-yl)-4-((2-fluoro-4-((3-morpholinoazetidin-1-yl)methyl)benzyl)amino)isoindoline-1,3-dione and salts thereof, and compositions comprising and methods of using the same” (Celgene Corporation, priority 2019, dated 2023):

Test system: SU-DHL-4 cell line
Test: Cell proliferation and viability assay using SU-DHL-4 cell line (CellTiter-Glo, 1536-well)
Assay type: cell-based
Conditions: Homo sapiens; SU-DHL-4, 120 hours, Cell Titer-Glo luminescence
Method: Cell Proliferation and Viability Assay Using SU-DHL-4 Cell Line: The following exemplary assay uses a DLBCL cell line, for example, the SU-DHL-4 cell line (Deutsche Sammlung von Mikroorganismen and Zellkulturen GmbH [DSMZ]: catalogue number ACC-495) at 120 hours post-treatment. The seeding density for SU-DHL-4 can be optimized to ensure assay linearity in 1536-well plates.
Increasing concentrations (0.5 nM to 10 μM) of Compound 1 were each spotted in a 20-point dilution fashion (unevenly spaced data points) via an acoustic dispenser (EDC ATS-100) into an empty 1536-well plate. The DMSO concentration was kept constant for a final assay concentration of 0.1% DMSO. […] At the time when exposure of cells to compound began (to), initial viable cell number was assessed via Cell Titer-Gb® Luminescent Cell Viability Assay at a 1 vol: 2 vol ratio according to manufacturer's instructions (Promega Corporation, Madison, Wis.) by quantifying the level of luminescence generated by adenosine-5′-triphosphate (ATP) present in viable cells. After 120 hours, cell viability of the treated cells was assessed via Cell Titer-Gb® and read for luminescence. All growth inhibition curves were processed and evaluated using Activity Base (IDBS, Alameda, Calif.). […]

O=C1CC[C@H](N2C(=O)c3cccc(NCc4ccc(CN5CC(N6CCOCC6)C5)cc4F)c3C2=O)C(=O)N1 [Compound 1, (S)-2-(2,6-dioxopiperidin-3-yl)-4-((2-fluoro-4-((3-morpholinoazetidin-1-yl)methyl)benzyl)amino)isoindoline-1,3-dione]
IC50: < 200 nM
